Assay results taken from ChEMBL document CHEMBL1201862, “PubChem BioAssay data set” (2004).
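Protocol summary: plate cells (96-well), add compound at 5 concentrations, incubate 48 h, interpolate endpoints linearly. Here, GI50 denotes the concentration required for 50% inhibition of growth.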 The source made the active and inactive calls. Rule as the data show it: active = GI50 up to about 1.1 µM and inactive = higher.

What was measured:
Assay in all cases: growth of human tumour cells (NCI), 48 h
NCI-H460 = tested on: NCI-H460
KM12 = tested on: KM12
HL-60 = tested on: HL-60
IGROV-1 = tested on: IGROV-1
MDA-N = tested on: MDA-N
CAKI-1 = tested on: CAKI-1
SF-539 = tested on: SF-539
LOX IMVI = tested on: LOX IMVI
SF-268 = tested on: SF-268
NCI-H23 = tested on: NCI-H23
DU-145 = tested on: DU-145
HOP-62 = tested on: HOP-62
HCC 2998 = tested on: HCC 2998
NCI-H226 = tested on: NCI-H226
NCI-H522 = tested on: NCI-H522
SK-OV-3 = tested on: SK-OV-3
UACC-257 = tested on: UACC-257
Malme-3M = tested on: Malme-3M
RPMI-8226 = tested on: RPMI-8226
UO-31 = tested on: UO-31

Measured: GI50

Cc1coc2c1CC1(C)C(CCC(O)C1C)C2 (stereo unspecified)
inactive: NCI-H460 > 100 µM | KM12 > 100 µM | HL-60 > 100 µM | IGROV-1 > 100 µM | MDA-N > 100 µM | CAKI-1 > 100 µM | SF-539 > 100 µM | LOX IMVI > 100 µM | SF-268 > 100 µM | NCI-H23 > 100 µM | DU-145 > 100 µM | HOP-62 > 100 µM | HCC 2998 > 100 µM | NCI-H226 > 100 µM | NCI-H522 > 100 µM | SK-OV-3 > 100 µM | UACC-257 > 100 µM | Malme-3M > 100 µM | RPMI-8226 > 100 µM

Cc1nc2ccc(S(=O)(=O)O)cc2c(=O)n1-c1ccc(C(=O)NN2C(=O)C(Cl)C2c2cccs2)cc1 (stereo unspecified)
inactive: NCI-H460 > 100 µM | KM12 > 100 µM | HL-60 17.8 µM | MDA-N 26.1 µM | CAKI-1 > 100 µM | SF-539 48 µM | LOX IMVI > 100 µM | SF-268 20.7 µM | NCI-H23 > 100 µM | DU-145 > 100 µM | HOP-62 23.1 µM | HCC 2998 > 100 µM | NCI-H226 > 100 µM | NCI-H522 > 100 µM | UO-31 > 100 µM | SK-OV-3 > 100 µM | UACC-257 > 100 µM | Malme-3M > 100 µM | RPMI-8226 > 100 µM

O=C(Nc1cccc(NC(=O)C(=O)C2CCC3=C(Sc4ccccc4N3)C2=O)n1)C(=O)C1CCC2=C(Sc3ccccc3N2)C1=O (stereo unspecified)
inactive: NCI-H460 65.9 µM | KM12 29.2 µM | HL-60 39.5 µM | IGROV-1 32.9 µM | MDA-N 40.2 µM | CAKI-1 38.3 µM | SF-539 13.1 µM | LOX IMVI 73.1 µM | SF-268 44.8 µM | NCI-H23 68.9 µM | DU-145 > 100 µM | HCC 2998 29.8 µM | NCI-H226 26.5 µM | NCI-H522 74.6 µM | UO-31 47.3 µM | SK-OV-3 > 100 µM | UACC-257 > 100 µM | Malme-3M > 100 µM | RPMI-8226 40.2 µM

CC1(c2nc3cc(Cl)c(Cl)cc3[nH]2)CCC(C(=O)O)C(C)(C)O1 (stereo unspecified)
inactive: KM12 > 100 µM | HL-60 > 100 µM | IGROV-1 > 100 µM | MDA-N > 100 µM | CAKI-1 > 100 µM | SF-539 > 100 µM | LOX IMVI > 100 µM | SF-268 > 100 µM | NCI-H23 > 100 µM | DU-145 > 100 µM | HOP-62 > 100 µM | HCC 2998 > 100 µM | NCI-H226 > 100 µM | NCI-H522 > 100 µM | UO-31 34.8 µM | SK-OV-3 > 100 µM | UACC-257 > 100 µM | Malme-3M > 100 µM | RPMI-8226 > 100 µM

CN(C)CCOC1(CC2CCCCC2)CCC(C(C)(C)C)CC1 (stereo unspecified)
inactive: NCI-H460 3.67 µM | KM12 4.27 µM | HL-60 2.54 µM | IGROV-1 8.71 µM | MDA-N 4.25 µM | CAKI-1 6.62 µM | SF-539 4.61 µM | LOX IMVI 2.73 µM | SF-268 10.5 µM | NCI-H23 8.43 µM | DU-145 7.01 µM | HOP-62 4.04 µM | HCC 2998 4.38 µM | NCI-H226 6.84 µM | NCI-H522 1.56 µM | UO-31 2.69 µM | SK-OV-3 11.6 µM | UACC-257 4.61 µM | Malme-3M 2.83 µM | RPMI-8226 2.02 µM
